One may read the IC50 as the concentration that inhibits the measured activity by half.

The target in one test is T1, Faah (Homo sapiens, UniProt O00519).
T1 construct: purchased Cayman Chemical
T1 sequence (O00519 1-579): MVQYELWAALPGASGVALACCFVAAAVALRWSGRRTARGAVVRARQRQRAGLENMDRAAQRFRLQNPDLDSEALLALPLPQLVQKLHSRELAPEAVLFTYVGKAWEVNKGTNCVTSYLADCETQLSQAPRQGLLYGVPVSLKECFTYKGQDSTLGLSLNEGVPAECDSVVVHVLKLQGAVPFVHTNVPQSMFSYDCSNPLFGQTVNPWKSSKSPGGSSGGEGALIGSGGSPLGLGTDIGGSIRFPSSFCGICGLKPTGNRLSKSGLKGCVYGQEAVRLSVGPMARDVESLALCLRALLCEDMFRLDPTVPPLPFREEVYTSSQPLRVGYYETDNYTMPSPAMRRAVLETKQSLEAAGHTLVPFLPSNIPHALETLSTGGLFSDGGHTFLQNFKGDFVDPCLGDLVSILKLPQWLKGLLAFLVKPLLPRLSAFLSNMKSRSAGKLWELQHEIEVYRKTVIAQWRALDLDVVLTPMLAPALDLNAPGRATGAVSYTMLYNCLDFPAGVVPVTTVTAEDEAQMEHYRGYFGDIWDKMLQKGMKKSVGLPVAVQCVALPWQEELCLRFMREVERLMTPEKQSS
Put plainly: FAAH Inhibitor Screening Assay Kit (Faah). It is filed as biochemical. As to conditions: target Faah; mean ± SD of three independent repeats, Bliss method, eight data points. As to the method: (§1) To validate the practicability of WES model, we randomly selected Enpp2, Faah, PTGS2, PPARG, and REN, the five inflammation-related targets, and predicted their direct ligand-target interactions. The 24 top-scoring (hybrid-WES) and commercially available drug-target interactions (Table 3) were tested by the ligand-binding assays.
(§2) Enpp2 (Autotaxin Inhibitor Screening Assay Kit), Faah (FAAH Inhibitor Screening Assay Kit), PTGS2 (COX Inhibitor Screening Assay Kit), PPARG (PPARγ Ligand Screening Assay Kit), and REN (Renin Inhibitor Screening Assay Kit) were purchased from Cayman Chemical, Ann Arbor, MI, USA. […] The activity of targets was detected according to manufacturer’s instructions. IC50 values were determined using the Bliss method according to the eight data points per drug. The same drug-target interaction was repeated independently three times to obtain a mean IC50 value and its standard deviation.

For the next test, the target named is T2, REN (Homo sapiens, UniProt P00797).
T2 construct: purchased Cayman Chemical
T2 sequence (P00797 67-406): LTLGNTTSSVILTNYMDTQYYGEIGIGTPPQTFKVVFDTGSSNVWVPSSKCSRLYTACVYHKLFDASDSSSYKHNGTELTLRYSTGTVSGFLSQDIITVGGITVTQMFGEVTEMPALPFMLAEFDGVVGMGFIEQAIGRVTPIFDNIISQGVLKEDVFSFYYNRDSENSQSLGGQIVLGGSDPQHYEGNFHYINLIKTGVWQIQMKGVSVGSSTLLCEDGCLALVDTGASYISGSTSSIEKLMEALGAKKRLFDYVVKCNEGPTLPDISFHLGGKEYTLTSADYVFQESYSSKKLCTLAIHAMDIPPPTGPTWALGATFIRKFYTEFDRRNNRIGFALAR
The experiment in a line: Renin Inhibitor Screening Assay Kit (REN). The note with it: target REN; mean ± SD of three independent repeats, Bliss method, eight data points. Format: biochemical. As to the method: as §1, §2

The next test concerns the target T3, PPARG (Homo sapiens, UniProt P37231).
T3 sequence (P37231 1-505): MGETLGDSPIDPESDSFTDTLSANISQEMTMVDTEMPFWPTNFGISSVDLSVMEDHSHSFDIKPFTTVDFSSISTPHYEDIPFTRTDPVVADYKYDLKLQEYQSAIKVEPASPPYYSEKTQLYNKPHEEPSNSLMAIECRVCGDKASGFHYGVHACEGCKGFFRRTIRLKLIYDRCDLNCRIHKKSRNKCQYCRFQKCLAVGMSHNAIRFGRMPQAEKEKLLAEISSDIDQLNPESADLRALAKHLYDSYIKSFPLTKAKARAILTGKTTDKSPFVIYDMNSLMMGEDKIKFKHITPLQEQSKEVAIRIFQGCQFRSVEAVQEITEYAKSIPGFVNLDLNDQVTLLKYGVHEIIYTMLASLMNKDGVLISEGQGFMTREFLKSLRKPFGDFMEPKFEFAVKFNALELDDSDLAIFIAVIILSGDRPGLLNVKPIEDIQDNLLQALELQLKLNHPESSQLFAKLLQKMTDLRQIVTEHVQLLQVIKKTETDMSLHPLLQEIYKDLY
Put plainly: PPARγ Ligand Screening Assay Kit (PPARG). As to conditions: target PPARG; mean ± SD of three independent repeats, Bliss method, eight data points. It is filed as binding. How it is done:
as §1, §2

Another test deals with T4, Enpp2 (Homo sapiens, UniProt Q13822).
T4 construct: purchased Cayman Chemical
Put plainly: Autotaxin Inhibitor Screening Assay Kit (Enpp2). Format: biochemical. How it is done: as §1, §2

The target in another test is T5, PTGS2 (Homo sapiens, UniProt P35354).
T5 construct: purchased Cayman Chemical
T5 sequence (P35354 18-604): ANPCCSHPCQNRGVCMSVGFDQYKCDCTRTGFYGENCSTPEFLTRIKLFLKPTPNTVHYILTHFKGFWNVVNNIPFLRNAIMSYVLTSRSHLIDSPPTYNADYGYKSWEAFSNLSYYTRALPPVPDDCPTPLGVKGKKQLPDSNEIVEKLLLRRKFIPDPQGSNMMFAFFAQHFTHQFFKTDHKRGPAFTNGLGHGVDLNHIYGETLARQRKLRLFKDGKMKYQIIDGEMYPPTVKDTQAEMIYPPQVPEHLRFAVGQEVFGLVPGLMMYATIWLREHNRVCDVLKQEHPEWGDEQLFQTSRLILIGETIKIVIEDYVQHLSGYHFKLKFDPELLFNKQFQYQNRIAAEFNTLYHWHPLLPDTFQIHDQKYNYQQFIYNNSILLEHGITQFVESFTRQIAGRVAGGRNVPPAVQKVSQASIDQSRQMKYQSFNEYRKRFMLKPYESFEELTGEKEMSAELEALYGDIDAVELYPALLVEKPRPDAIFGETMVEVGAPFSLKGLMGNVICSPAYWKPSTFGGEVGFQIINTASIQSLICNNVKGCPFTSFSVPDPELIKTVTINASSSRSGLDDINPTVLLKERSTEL
Put plainly: COX Inhibitor Screening Assay Kit (PTGS2). Format: biochemical. The note with it: target PTGS2; mean ± SD of three independent repeats, Bliss method, eight data points. As to the method:
as §1, §2

[1] abbreviates: target Enpp2, mean ± SD of three independent repeats, Bliss method, eight data points, read-out: IC50 (μM):mean ± SD.

“And” between values parts separate entries of the source, which are not always exact repeats. Equal values may be shown once. Read-outs that look alike come from different tables or passages of the source.

Turning to `CC/C=C\C/C=C\C/C=C\CCCCCCCC(=O)O` [Alpha-linolenic acid], on Faah, the IC50 was 43.9 µM and 53.9 µM.

For `CC(C)C[C@H](NC(=O)[C@H](CCc1ccccc1)NC(=O)CN1CCOCC1)C(=O)N[C@@H](Cc1ccccc1)C(=O)N[C@@H](CC(C)C)C(=O)[C@@]1(C)CO1` [Carfilzomib], the IC50 at REN was 22 ± 6.4 µM.

Turning to `COC(=O)CCc1ccc(OCC(O)CNC(C)C)cc1` (stereo not drawn) [Esmolol], the IC50 against PPARG was 40.8 ± 6.5 µM. Take `CCCCCCCCc1ccc(CCC(N)(CO)CO)cc1` [Fingolimod]: on Enpp2 (setting [1]), the IC50 is 115 ± 5.8 µM. Take `CCN(CC)CC(=O)OCC(=O)[C@@]1(O)CC[C@H]2[C@@H]3CCC4=CC(=O)CC[C@]4(C)[C@H]3[C@@H](O)C[C@@]21C` [Hydrocortamate]: the IC50 at Enpp2 (setting [1]) was determined as 218 ± 6.4 µM. The molecule `CC(C)(C)NC(=O)[C@@H]1CN(Cc2cccnc2)CCN1C[C@@H](O)C[C@@H](Cc1ccccc1)C(=O)N[C@H]1c2ccccc2C[C@H]1O` [Indinavir] showed an IC50 at REN of 44.3 ± 12.1 µM. As for `Cc1cccc(C)c1OCC(=O)N[C@@H](Cc1ccccc1)[C@@H](O)C[C@H](Cc1ccccc1)NC(=O)[C@H](C(C)C)N1CCCNC1=O` [Lopinavir], on REN, the IC50 came out at 49.3 ± 10.3 µM. In turn, `C/C(=C\C(=O)OCCCCCCCCC(=O)O)C[C@@H]1OC[C@H](C[C@@H]2O[C@H]2[C@@H](C)[C@H](C)O)[C@@H](O)[C@H]1O` [Mupirocin] registered an IC50 against PTGS2 of 123 ± 7.4 µM. As to `CC[C@H](C)C(=O)O[C@H]1C[C@H](O)C=C2C=C[C@H](C)[C@H](CC[C@@H](O)C[C@@H](O)CC(=O)O)[C@H]21` [Pravastatin], the IC50 on PTGS2 is 199 ± 12.3 µM.

`Cc1c(C(=O)NN2CCCCC2)nn(-c2ccc(Cl)cc2Cl)c1-c1ccc(Cl)cc1` [Rimonabant] showed an IC50 at PTGS2 of 138 ± 3.5 µM. With `CC(=O)OCC(=O)NCCCOc1cccc(CN2CCCCC2)c1` [Roxatidine acetate], on Faah, the IC50 is 34.5 ± 1.5 µM. For the molecule `CC(C)(C)NC(=O)[C@@H]1C[C@@H]2CCCC[C@@H]2CN1C[C@@H](O)[C@H](Cc1ccccc1)NC(=O)[C@H](CC(N)=O)NC(=O)c1ccc2ccccc2n1` [Saquinavir], at REN, the IC50 stood at 69.1 ± 4.2 µM.

Regarding `CCCCC[C@H](O)CC[C@@H]1[C@H]2Cc3cccc(OCC(=O)O)c3C[C@H]2C[C@H]1O` [Treprostinil], at PPARG, the IC50 turned out to be 69 ± 17.5 µM and the “IC50 (μM):mean ± SD” value is given as “micromolar concentration range”. In turn, `CN[C@H](CC(C)C)C(=O)N[C@H]1C(=O)N[C@@H](CC(N)=O)C(=O)N[C@H]2C(=O)N[C@H]3C(=O)N[C@H](C(=O)N[C@H](C(=O)O)c4cc(O)cc(O)c4-c4cc3ccc4O)[C@H](O)c3ccc(c(Cl)c3)Oc3cc2cc(c3O[C@@H]2O[C@H](CO)[C@@H](O)[C@H](O)[C@H]2O[C@H]2C[C@](C)(N)[C@H](O)[C@H](C)O2)Oc2ccc(cc2Cl)[C@H]1O` [Vancomycin] displayed an IC50 at Enpp2 of 68.5 ± 7 µM. Take Cetrorelix (AFASYRLRPA): it took 156 ± 3.7 µM to reach half-maximal inhibition in the test with REN (IC50).

In the case of Felypressin (CFFQNCPKG), the IC50 with REN was found to be 4.5 ± 7.1 µM. On to Pasireotide, for which the IC50 with Enpp2 (setting [1]) turned out to be 73.3 ± 9.7 µM.

Source of the values: paper PMC4496667, “Large-scale Direct Targeting for Drug Repositioning and Discovery” (Scientific Reports, 2015).
